Test results from patent US20250268854A1, “2-AMINO-5,5-DIMETHYLHEXANOIC ACID DERIVATIVES AS SORTILIN MODULATORS FOR USE IN THE TREATMENT OF DISEASE OF THE CENTRAL NERVOUS SYSTEM” (c/o Vesper Bio ApS, priority 2021, published 2025).
pIC50: −log10 of the molar value. Structures can show the parent of a compound that is named as a salt.

Columns and labels:
[1] = target: human Sortilin (Homo sapiens (Human), UniProt Q99523); assay: Creoptix (GCI) binding kinetics, human Sortilin; conditions: screened at 1 μM
Sequence of human Sortilin (Q99523 78-755): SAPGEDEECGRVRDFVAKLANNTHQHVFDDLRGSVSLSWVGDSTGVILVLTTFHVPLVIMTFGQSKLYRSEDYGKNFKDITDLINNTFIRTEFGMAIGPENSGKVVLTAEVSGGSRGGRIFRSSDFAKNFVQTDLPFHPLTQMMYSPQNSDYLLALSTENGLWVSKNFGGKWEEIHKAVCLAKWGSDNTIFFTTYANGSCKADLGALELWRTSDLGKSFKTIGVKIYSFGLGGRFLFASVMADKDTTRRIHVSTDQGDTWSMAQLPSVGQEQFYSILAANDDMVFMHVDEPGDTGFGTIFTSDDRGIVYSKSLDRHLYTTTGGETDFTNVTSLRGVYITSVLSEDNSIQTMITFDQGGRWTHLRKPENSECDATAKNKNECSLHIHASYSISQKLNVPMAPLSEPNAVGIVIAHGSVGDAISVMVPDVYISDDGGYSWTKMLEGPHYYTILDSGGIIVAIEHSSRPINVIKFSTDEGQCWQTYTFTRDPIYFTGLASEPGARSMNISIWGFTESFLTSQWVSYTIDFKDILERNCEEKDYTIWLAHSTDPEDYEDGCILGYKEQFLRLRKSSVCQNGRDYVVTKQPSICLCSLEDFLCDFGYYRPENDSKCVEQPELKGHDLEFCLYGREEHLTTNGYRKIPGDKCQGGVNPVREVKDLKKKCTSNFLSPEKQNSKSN
Protocol: A protein, bound to a surface, is bathed in a solution containing potential ligands giving rise to binding kinetics to generate Kon and Koff rates, as well as a Kd.
All buffers described were filtered using a 0.2 μm filter (Product number: 10300461, Nalgene) and degassed for 15 minutes prior to use.
A flow cell temperature of 25 degrees Celsius was used throughout the experiment.
A 4PCH chip was conditioned across all flow cells using 0.2× concentration running buffer (running buffer composition: 1×HBS-N, pH 7.4, 3.4 mM EDTA, 1% DMSO) using pre-set conditioning wizard (WAVE control software) injecting: 0.1 M borate, 1 M NaCl (pH 9) followed by three start-up injections of 0.2× running buffer.
A buffer exchange was performed and 1× running buffer (1×HBS-N, pH 7.4, 3.4 mM EDTA, 1% DMSO) used during the immobilisation procedure:
An initial injection of EDC/NHS (mixed in 1:1 ratio) was performed across all 4-flow cells to activate the surface for amine coupling of ligands.
Recombinant Sortilin aliquots were thawed quickly by hand and centrifuged at 13,300 rpm for 10 minutes. A 10 μg/ml protein solution was then made in pH 5.0 acetate and injected once for 20 minutes over flow-cells 2, 3 and 4 for human, human (flow cells 2 & 3), and mouse Sortilin respectively followed by a 60 second dissociation period.
A final 7-minute passivation injection of 50 mM tris was used across all flow cells.
A flow rate of 10 μl/min was used for all conditioning and immobilisation cycles.
Compounds were screened at 1 μM using the in-built ‘intermediate binders’ settings: 100 ul/min, 45 s baseline, 25 s association, 300 s dissociation, with blanks every 5th sample and a DMSO correction (1.5% DMSO at the start and end of the experiment as well as every 20 cycles. An acquisition rate of 10 Hz was used throughout the experiment.
Compounds were screened at a final assay concentration of 1 μM and a final DMSO concentration was 1%. To achieve this, compounds were diluted in DMSO from 10 mM stocks to 100 μM (100×final assay concentration) then diluted 1:100 in running buffer which contained no DMSO to establish a final assay concentration of compound of 1 μM and a final DMSO concentration of 1% [DMSO].
Compounds and DMSO were mixed by plate shaking at 1000 rpm for 60 seconds using a Bioshake instrument.
A flow rate of 100 μl/min was used throughout the experiment.
Data was evaluated using the RAPID kinetic analysis tool in the GCI WAVE_control software with data fitted using a standard 1:1 kinetic BioModel.

[2] = target: h-Sortilin (Homo sapiens (Human), UniProt Q99523); assay: Neurotensin (NTS) scintillation proximity assay (SPA): displacement of [3H]-neurotensin binding; conditions: 150 nM 6his-Sortilin, 5 nM [3H]-Neurotensin; average of at least 2 determinations
Sequence of h-Sortilin (Q99523 78-831): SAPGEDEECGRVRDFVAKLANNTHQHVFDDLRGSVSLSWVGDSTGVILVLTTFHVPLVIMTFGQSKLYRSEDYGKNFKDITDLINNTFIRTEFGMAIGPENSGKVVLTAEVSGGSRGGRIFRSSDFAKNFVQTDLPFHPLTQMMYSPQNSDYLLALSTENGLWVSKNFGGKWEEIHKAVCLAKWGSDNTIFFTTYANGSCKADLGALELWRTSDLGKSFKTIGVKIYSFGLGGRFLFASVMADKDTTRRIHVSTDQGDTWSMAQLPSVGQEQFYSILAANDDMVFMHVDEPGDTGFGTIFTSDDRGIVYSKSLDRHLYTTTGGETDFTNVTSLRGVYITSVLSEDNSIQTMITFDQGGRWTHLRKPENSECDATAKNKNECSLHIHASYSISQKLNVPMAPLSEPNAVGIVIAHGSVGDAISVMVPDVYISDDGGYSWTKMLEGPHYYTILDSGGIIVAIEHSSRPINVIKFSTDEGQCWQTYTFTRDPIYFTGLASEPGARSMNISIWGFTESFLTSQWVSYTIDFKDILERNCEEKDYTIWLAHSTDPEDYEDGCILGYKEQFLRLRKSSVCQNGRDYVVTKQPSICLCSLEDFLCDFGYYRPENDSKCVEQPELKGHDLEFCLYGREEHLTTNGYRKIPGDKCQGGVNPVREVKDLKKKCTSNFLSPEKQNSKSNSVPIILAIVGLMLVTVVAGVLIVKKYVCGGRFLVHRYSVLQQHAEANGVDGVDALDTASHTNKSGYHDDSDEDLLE
Protocol: The exemplified compounds of the invention were tested in a Neurotensin (NTS) scintillation proximity assay (SPA). NTS, which is a 13 amino acid neuropeptide, is a sortilin ligand. The IC50 is a measure of the amount of the compound required to inhibit the binding of NTS to sortilin by 50%. […] Compound affinity was determined by measuring the displacement of [^3H]-neurotensin binding to h-Sortilin in SPA format. […] IC50 values were calculated by nonlinear regression using the sigmoid concentration-response (variable slope) using CDD Vault software. All values reported are average of at least 2 determinations.

| Compound | Kd ([1]; Free acid) [nM] | pIC50 [2] | Kd ([1]; Ms salt) [nM] | Kd ([1]; HCl salt) [nM] |
| --- | --- | --- | --- | --- |
| COc1ccc([C@H](N[C@@H](CCC(C)(C)C)C(=O)O)C(F)F)cc1OC [Example 112, (2S)-2-{[(1S)-1-(3,4-dimethoxyphenyl)-2,2-difluoroethyl]amino}-5,5-dimethylhexanoic acid] | 183 | 6.55 |  |  |
| CC(C)(C)CC[C@H](NCc1ccccc1)C(=O)O [Example 3, (S)-2-(benzylamino)-5,5-dimethylhexanoic acid hydrochloride] |  | 6.12 |  | 902 |
| COc1cc(C)cc(CN[C@@H](CCC(C)(C)C)C(=O)O)c1 [Example 69, (2S)-2-{[(3-methoxy-5-methylphenyl)methyl]amino}-5,5-dimethylhexanoic acid] | 2760 | 5.86 |  |  |
| CC(C)(C)CC[C@H](NCc1ccc2c(c1)OCCO2)C(=O)O [Example 41, (2S)-2-{[(2,3-dihydro-1,4-benzodioxin-6-yl)methyl]amino}-5,5-dimethylhexanoic acid] | 5960 | 6.48 |  |  |
| COc1ccc([C@H](N[C@@H](CCC(C)(C)C)C(=O)O)C(F)(F)F)cc1OC [Example 114, (2S)-2-{[(1S)-1-(3,4-dimethoxyphenyl)-2,2,2-trifluoroethyl]amino}-5,5-dimethylhexanoic acid] | 132 | 6.66 |  |  |
| COc1cc(CN[C@@H](CCC(C)(C)C)C(=O)O)ccc1F [Example 74, (2S)-2-{[(4-fluoro-3-methoxyphenyl)methyl]amino}-5,5-dimethylhexanoic acid] | 3390 | 6.02 |  |  |
| COc1ccc([C@@H](C)N[C@@H](CCC(C)(C)C)C(=O)O)cc1OC [Example 107, (2S)-2-{[(1R)-1-(3,4-dimethoxyphenyl)ethyl]amino}-5,5-dimethylhexanoic acid] | 443 | 6.03 |  |  |
| COc1cc(CN[C@@H](CCC(C)(C)C)C(=O)O)ccc1C [Example 33, (2S)-2-{[(3-methoxy-4-methylphenyl)methyl]amino}-5,5-dimethylhexanoic acid] | 242 | 6.40 |  |  |
| Cc1ccc(CN[C@@H](CCC(C)(C)C)C(=O)O)c2ccn(C)c12 [Example 131, (S)-2-(((1,7-dimethyl-1H-indol-4-yl)methyl)amino)-5,5-dimethylhexanoic acid, Mesylic acid] | 97.6 | 6.42 |  |  |
| COc1cc(F)cc(CN[C@@H](CCC(C)(C)C)C(=O)O)c1 [Example 29, (2S)-2-{[(3-fluoro-5-methoxyphenyl)methyl]amino}-5,5-dimethylhexanoic acid] | 571 | 6.26 |  |  |
| COc1cccc([C@H](N[C@@H](CCC(C)(C)C)C(=O)O)C(F)(F)F)c1 [Example 24, (2S)-5,5-dimethyl-2-{[(1S)-2,2,2-trifluoro-1-(3-methoxyphenyl)ethyl]amino}hexanoic acid] | 230 |  |  |  |
| CC(C)(C)CC[C@H](N[C@H](c1ccccc1)C(F)F)C(=O)O [Example 19, (2S)-2-{[(1R)-2,2-difluoro-1-phenylethyl]amino}-5,5-dimethylhexanoic acid] |  | 6.25 |  |  |
| CC(C)(C)CC[C@H](N[C@@H](c1ccccc1)C(F)(F)F)C(=O)O [Example 16, (S)-5,5-dimethyl-2-(((S)-2,2,2-trifluoro-1-phenylethyl)amino)hexanoic acid] |  | 5.83 |  |  |
| CC(C)(C)CC[C@H](NCc1cc(Cl)cc(Cl)c1)C(=O)O [Example 32, (2S)-2-{[(3,5-dichlorophenyl)methyl]amino}-5,5-dimethylhexanoic acid] |  | 6.08 |  |  |
| Cc1nc2cc(CN[C@@H](CCC(C)(C)C)C(=O)O)ccc2s1 [Example 100, (2S)-5,5-dimethyl-2-{[(2-methyl-1,3-benzothiazol-5-yl)methyl]amino}hexanoic acid] |  | 6.42 |  |  |
| CC(C)(C)CC[C@H](NCc1cncc(Br)c1)C(=O)O [Example 77, (2S)-2-{[(5-bromopyridin-3-yl)methyl]amino}-5,5-dimethylhexanoic acid] |  | 6.22 |  |  |
| CC(C)(C)CC[C@H](NCc1cccc(-n2ccnc2)c1)C(=O)O [Example 57, (2S)-2-({[3-(1H-imidazol-1-yl)phenyl]methyl}amino)-5,5-dimethylhexanoic acid] |  | 5.89 |  |  |
| Cn1cnc2cc(CN[C@@H](CCC(C)(C)C)C(=O)O)ccc21 [Example 110, (2S)-5,5-dimethyl-2-{[(1-methyl-1H-1,3-benzodiazol-5-yl)methyl]amino}hexanoic acid] |  | 6.34 |  |  |
| Cn1nccc1CN[C@@H](CCC(C)(C)C)C(=O)O [Example 52, (2S)-5,5-dimethyl-2-{[(1-methyl-1H-pyrazol-5-yl)methyl]amino}hexanoic acid] |  | 5.81 |  |  |
| CC(C)(C)CC[C@H](N[C@H](c1ccccc1)C(F)(F)F)C(=O)O [Example 18, (S)-5,5-dimethyl-2-(((R)-2,2,2-trifluoro-1-phenylethyl)amino)hexanoic acid] |  | 6.14 |  |  |
| Cn1ccc2cc(CN[C@@H](CCC(C)(C)C)C(=O)O)cnc21 [Example 106, (2S)-5,5-dimethyl-2-[({1-methyl-1H-pyrrolo[2,3-b]pyridin-5-yl}methyl)amino]hexanoic acid] |  | 6.23 |  |  |

Continued, in another order:

| Kd ([1]; Free acid) [nM] | pIC50 [2] | Kd ([1]; Ms salt) [nM] | Compound | Kd ([1]; HCl salt) [nM] |
| --- | --- | --- | --- | --- |
| 456 | 6.07 |  | COc1ccc(F)c(CN[C@@H](CCC(C)(C)C)C(=O)O)c1 [Example 140, (2S)-2-{[(2-fluoro-5-methoxyphenyl)methyl]amino}-5,5-dimethylhexanoic acid] |  |
|  | 6.26 | 522 | CC(C)(C)CC[C@H](NCc1ccc(Cl)c(Cl)c1)C(=O)O [Example 125, (2S)-2-{[(3,4-dichlorophenyl)methyl]amino}-5,5-dimethylhexanoic acid] |  |
| 1020 | 5.65 |  | COc1ccc(OC)c(CN[C@@H](CCC(C)(C)C)C(=O)O)c1 [Example 28, (2S)-2-{[(2,5-dimethoxyphenyl)methyl]amino}-5,5-dimethylhexanoic acid] |  |
| 208 | 6.13 |  | Cc1ccc(CN[C@@H](CCC(C)(C)C)C(=O)O)cc1C [Example 137, (S)-2-((3,4-dimethylbenzyl)amino)-5,5-dimethylhexanoic acid, Mesylic acid] |  |
|  | 6.41 | 512 | Cc1ccc(CN[C@@H](CCC(C)(C)C)C(=O)O)cc1Cl [Example 129, (2S)-2-{[(3-chloro-4-methylphenyl)methyl]amino}-5,5-dimethylhexanoic acid] |  |
| 285 | 5.97 |  | CC(C)(C)CC[C@H](NCc1cccc2c1OCO2)C(=O)O [Example 45, (2S)-2-{[(2H-1,3-benzodioxol-4-yl)methyl]amino}-5,5-dimethylhexanoic acid] |  |
|  | 6.20 |  | COc1ccccc1CN[C@@H](CCC(C)(C)C)C(=O)O [Example 9, (S)-2-((2-methoxybenzyl)amino)-5,5-dimethylhexanoic acid hydrochloride] | 8450 |
| 443 | 6.01 |  | COc1cccc(CN[C@@H](CCC(C)(C)C)C(=O)O)c1C [Example 75, (2S)-2-{[(3-methoxy-2-methylphenyl)methyl]amino}-5,5-dimethylhexanoic acid] |  |
|  | 6.09 |  | CC(C)(C)CC[C@H](NCc1ccncc1)C(=O)O [Example 58, (2S)-5,5-dimethyl-2-{[(pyridin-4-yl)methyl]amino}hexanoic acid] |  |
|  | 5.72 |  | CC(C)(C)CC[C@H](NCc1ccccc1-c1ccncc1)C(=O)O [Example 56, (2S)-5,5-dimethyl-2-({[2-(pyridin-4-yl)phenyl]methyl}amino)hexanoic acid] |  |
|  | 5.55 |  | CC(C)(C)CC[C@H](NCc1c(F)cccc1F)C(=O)O [Example 12, (2S)-2-{[(2,6-difluorophenyl)methyl]amino}-5,5-dimethylhexanoic acid] |  |
|  | 5.89 |  | CC(C)(C)CC[C@H](NCc1ccccc1CO)C(=O)O [Example 59, (S)-2-((2-(hydroxymethyl)benzyl)amino)-5,5-dimethylhexanoic acid hydrochloride] |  |
|  | 5.97 |  | CC(C)(C)CC[C@H](NCc1cccc2ncccc12)C(=O)O [Example 48, (2S)-5,5-dimethyl-2-{[(quinolin-5-yl)methyl]amino}hexanoic acid] |  |
